Reference: ChEMBL document CHEMBL1201862, “PubChem BioAssay data set” (2004)
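How tested: cells in 96-well plates exposed to compound for 48 hours at five concentrations. GI50 marks 50% less growth.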 Active and inactive are the calls of the source. No stated cut-off is given here; in the data, active = GI50 up to about 1.1 µM and inactive = higher.

Assays:
Assay in all cases: NCI tumour cell line growth inhibition, 48 h
SK-MEL-28 = system: SK-MEL-28
U-251 = system: U-251
MDA-MB-435 = system: MDA-MB-435
MDA-N = system: MDA-N
RXF 393 = system: RXF 393
HOP-62 = system: HOP-62
OVCAR-4 = system: OVCAR-4
A549 = system: A549
SF-539 = system: SF-539
HT-29 = system: HT-29
NCI-H226 = system: NCI-H226
NCI-H460 = system: NCI-H460
SR = system: SR
HCC 2998 = system: HCC 2998
KM12 = system: KM12
HCT-15 = system: HCT-15
COLO 205 = system: COLO 205
TK-10 = system: TK-10
HL-60 = system: HL-60
LOX IMVI = system: LOX IMVI

Row | Compound | GI50 (SK-MEL-28) | GI50 (U-251) | GI50 (MDA-MB-435) | GI50 (MDA-N) | GI50 (RXF 393) | GI50 (HOP-62) | GI50 (OVCAR-4) | GI50 (A549) | GI50 (SF-539) | GI50 (HT-29) | GI50 (NCI-H226) | GI50 (NCI-H460) | GI50 (SR) | GI50 (HCC 2998) | GI50 (KM12) | GI50 (HCT-15) | GI50 (COLO 205) | GI50 (TK-10) | GI50 (HL-60) | GI50 (LOX IMVI)
1 | CCCCCCCCC/C=C1/CC(CO)(COC(=O)c2ccccc2)OC1=O (configuration not stated) | 13.7 µM (inactive) | 14 µM (inactive) | 11.1 µM (inactive) | 6.01 µM (inactive) | 15.6 µM (inactive) | 4.92 µM (inactive) | 12.7 µM (inactive) | 12.9 µM (inactive) | 20.4 µM (inactive) | 17.7 µM (inactive) | 10.5 µM (inactive) | 10 µM (inactive) | 17.9 µM (inactive) | 14.6 µM (inactive) | 16.7 µM (inactive) | 16.3 µM | 1.85 µM (inactive) | 10.8 µM (inactive) |  | 
2 | O=C(NNCC(O)COc1ccccc1)c1ccccc1 (configuration not stated) | > 100 µM (inactive) | > 100 µM (inactive) | > 100 µM (inactive) | > 100 µM (inactive) | > 100 µM (inactive) | > 100 µM (inactive) | > 100 µM (inactive) | > 100 µM (inactive) | > 100 µM (inactive) | > 100 µM (inactive) | > 100 µM (inactive) |  |  | > 100 µM (inactive) | > 100 µM (inactive) | > 100 µM | > 100 µM (inactive) | > 100 µM (inactive) | > 100 µM (inactive) | > 100 µM (inactive)
3 | O=P(O)(O)CCP(=O)(O)O | > 100 µM (inactive) | > 100 µM (inactive) | > 100 µM (inactive) | > 100 µM (inactive) | > 100 µM (inactive) | > 100 µM (inactive) | > 100 µM (inactive) | > 100 µM (inactive) | > 100 µM (inactive) | > 100 µM (inactive) |  | > 100 µM (inactive) | > 100 µM (inactive) |  | > 100 µM (inactive) | > 100 µM | > 100 µM (inactive) | > 100 µM (inactive) | 61.1 µM (inactive) | > 100 µM (inactive)
4 | CCCCCCCCCC(=O)CC(=O)c1c(O)cc(O)cc1O | 23.3 µM (inactive) | 23.8 µM (inactive) | 16.9 µM (inactive) | 16.9 µM (inactive) | 11.7 µM (inactive) | 13.6 µM (inactive) | 16.3 µM (inactive) | 25.6 µM (inactive) | 19.5 µM (inactive) | 17.1 µM (inactive) | 16.2 µM (inactive) |  |  | 18.8 µM (inactive) | 18.1 µM (inactive) | 18.2 µM | 26.6 µM (inactive) | 30.4 µM (inactive) | 17.9 µM (inactive) | 17.4 µM (inactive)
5 | CCCNc1ncnc2c1ncn2C | > 100 µM (inactive) | > 100 µM (inactive) | > 100 µM (inactive) | > 100 µM (inactive) | > 100 µM (inactive) | 35.2 µM (inactive) | > 100 µM (inactive) | > 100 µM (inactive) | 34.2 µM (inactive) |  | > 100 µM (inactive) |  |  | 78.7 µM (inactive) | > 100 µM (inactive) | 86.9 µM | 96.4 µM (inactive) | > 100 µM (inactive) | 32.9 µM (inactive) | 31 µM (inactive)
6 | Cc1cc(C)n(CN(Cn2nc(C)cc2C)C2CCCCC2)n1 | 20.7 µM (inactive) | 32.1 µM (inactive) | 22.2 µM (inactive) | 19 µM (inactive) | 22.4 µM (inactive) | 31.3 µM (inactive) | 24.2 µM (inactive) | 66.2 µM (inactive) | 15.7 µM (inactive) | 21.1 µM (inactive) |  | 61.8 µM (inactive) | 30.1 µM (inactive) | 14.6 µM (inactive) | 21.2 µM (inactive) | 20.6 µM | 18.1 µM (inactive) | 44.4 µM (inactive) |  | 0.0652 µM (active)
7 | CC(NC(=O)C(C)C(=O)Nc1ccc(C(F)(F)F)cc1)C(N)=O (configuration not stated) |  | > 100 µM (inactive) | > 100 µM (inactive) | > 100 µM (inactive) | > 100 µM (inactive) |  |  | > 100 µM (inactive) | > 100 µM (inactive) | > 100 µM (inactive) | > 100 µM (inactive) | > 100 µM (inactive) | > 10 µM (inactive) |  | > 100 µM (inactive) | > 100 µM | > 100 µM (inactive) |  | > 100 µM (inactive) | 
8 | CCOC(=O)COc1c(OC)cc(C2C3=C(COC3=O)Oc3cc4c(cc32)OCO4)cc1OC (configuration not stated) | 0.614 µM (active) | 0.499 µM (active) | 0.0635 µM (active) | 0.384 µM (active) |  | 2.16 µM (inactive) | 2.46 µM (inactive) | 4.45 µM (inactive) | 3.57 µM (inactive) | 0.927 µM (active) | > 54 µM (inactive) | 7.94 µM (inactive) | 0.995 µM (active) | 14.5 µM (inactive) | 0.304 µM (active) | 0.502 µM | 0.991 µM (active) | 6.18 µM (inactive) | 0.138 µM (active) | 0.625 µM (active)
9 | COc1ccc(C2c3cc4c(cc3C(O)C3CCC(=O)N23)OCO4)cc1 (configuration not stated) | > 100 µM (inactive) | > 100 µM (inactive) | > 100 µM (inactive) | > 100 µM (inactive) |  | > 100 µM (inactive) | > 100 µM (inactive) | > 100 µM (inactive) | > 100 µM (inactive) | > 100 µM (inactive) | > 100 µM (inactive) | > 100 µM (inactive) | > 100 µM (inactive) | > 100 µM (inactive) | > 100 µM (inactive) | > 100 µM | > 100 µM (inactive) | > 100 µM (inactive) | > 100 µM (inactive) | > 100 µM (inactive)
10 | CNc1ncnc2c1ncn2C1C=CC(COS(N)(=O)=O)C1 (configuration not stated) | > 100 µM (inactive) | > 100 µM (inactive) | > 100 µM (inactive) | > 100 µM (inactive) | > 100 µM (inactive) | > 100 µM (inactive) | > 100 µM (inactive) | > 100 µM (inactive) | > 100 µM (inactive) | > 100 µM (inactive) |  | > 100 µM (inactive) | > 100 µM (inactive) | > 100 µM (inactive) | > 100 µM (inactive) | > 100 µM | > 100 µM (inactive) |  | > 100 µM (inactive) | > 100 µM (inactive)
11 | CN(C)c1ccc(C=C2N=C(c3ccccc3)N(c3cc(C(=O)c4ccccc4)ccc3N3C(=O)/C(=C/c4ccc(N(C)C)cc4)N=C3c3ccccc3)C2=O)cc1 | > 100 µM (inactive) | 3.67 µM (inactive) | 1.9 µM (inactive) | 2.16 µM (inactive) |  | 20.7 µM (inactive) | 7.21 µM (inactive) | 6.31 µM (inactive) | 2.34 µM (inactive) | 4.28 µM (inactive) |  | 3.94 µM (inactive) | 3.3 µM (inactive) | 3.76 µM (inactive) | 3.71 µM (inactive) | 4.49 µM | 3.74 µM (inactive) | 23.8 µM (inactive) | 5.01 µM (inactive) | 5.98 µM (inactive)
12 | Cc1ccc(CS(=O)(=O)C/N=C2\Sc3ccccc3N\C2=C/C(=O)c2ccc(Cl)cc2)cc1 | > 10 µM (inactive) | > 10 µM (inactive) | > 10 µM (inactive) | > 10 µM (inactive) |  | 8.22 µM (inactive) | 5.47 µM (inactive) | > 10 µM (inactive) | > 10 µM (inactive) | > 10 µM (inactive) |  |  | > 10 µM (inactive) | > 10 µM (inactive) | > 10 µM (inactive) | > 10 µM | > 10 µM (inactive) | > 10 µM (inactive) | 1 µM (active) | > 10 µM (inactive)
13 | Cc1c(Cc2ccccc2)c(Cc2ccccc2)c(C)[s+]1[O-] | 30.3 µM (inactive) | 25.6 µM (inactive) | 17.7 µM (inactive) | 24.6 µM (inactive) | 20.6 µM (inactive) | 50.4 µM (inactive) | 23.7 µM (inactive) | 30.2 µM (inactive) | 45.2 µM (inactive) | 16.7 µM (inactive) |  | 27.5 µM (inactive) | 19.8 µM (inactive) | 19.6 µM (inactive) | 17.3 µM (inactive) | 31.3 µM | 20.5 µM (inactive) | 26.1 µM (inactive) | 12.5 µM (inactive) | 20.7 µM (inactive)
14 | COC(=O)[C@H](C)NC(=O)[C@H](CSC)N1C(=O)N[C@@H](C(C)C)C1=O | > 100 µM (inactive) | > 100 µM (inactive) | > 100 µM (inactive) | > 100 µM (inactive) | > 100 µM (inactive) | > 100 µM (inactive) | > 100 µM (inactive) | > 100 µM (inactive) | > 100 µM (inactive) | > 100 µM (inactive) | > 100 µM (inactive) | 71.3 µM (inactive) | > 100 µM (inactive) | > 100 µM (inactive) | > 100 µM (inactive) | > 100 µM | > 100 µM (inactive) | > 100 µM (inactive) |  | > 100 µM (inactive)
15 | COc1cc(N(CCC#N)CCC#N)ccc1C(/N=N/c1cccc([N+](=O)[O-])c1)=N\NC(=O)c1ccc(C)cc1 | > 100 µM (inactive) | > 100 µM (inactive) | > 100 µM (inactive) | 84.5 µM (inactive) | > 100 µM (inactive) | > 100 µM (inactive) | 53.7 µM (inactive) | > 100 µM (inactive) |  | 92 µM (inactive) | > 100 µM (inactive) | 24.3 µM (inactive) |  | 26 µM (inactive) | > 100 µM (inactive) | 80.2 µM | > 100 µM (inactive) | 31.7 µM (inactive) | 10.8 µM (inactive) | > 100 µM (inactive)
16 | CC1=NN(c2nc(N)nc(CSc3cc(Cl)c(C)cc3S(N)(=O)=O)n2)C(C)(C)C1 | > 10 µM (inactive) | > 10 µM (inactive) | > 10 µM (inactive) | > 10 µM (inactive) | > 10 µM (inactive) | > 10 µM (inactive) | > 10 µM (inactive) | > 10 µM (inactive) | > 10 µM (inactive) | > 10 µM (inactive) | > 10 µM (inactive) | > 10 µM (inactive) |  | > 10 µM (inactive) | > 10 µM (inactive) | > 10 µM | > 10 µM (inactive) | > 10 µM (inactive) | > 10 µM (inactive) | > 10 µM (inactive)
